Publication PMC10571995, “Near-Infrared Imaging of Colonic Adenomas In Vivo Using Orthotopic Human Organoids for Early Cancer Detection” (Cancers, 2023)
Residues, ends and D or L forms follow the SMILES beside them. *: point of attachment. X2 = CC1(C)C(/C=C/C2=C(Oc3ccc(S(=O)(=O)O)cc3)C(=C/C=C3/N(CCCCCC(=O)NCCN4C(=O)CC(*)C4=O)c4ccc(S(=O)(=O)O)cc4C3(C)C)/CCC2)=[N+](CCCCS(=O)(=O)[O-])c2ccc(S(=O)(=O)O)cc21; X1 = CC1(C)C(=CC=C2CCCC(C=CC3=[N+](CCCCS(=O)(=O)[O-])c4ccc(S(=O)(=O)O)cc4C3(C)C)=C2Oc2ccc(S(=O)(=O)O)cc2)N(CCCCCC(=O)NCCN2C(=O)CC(*)C2=O)c2ccc(S(=O)(=O)O)cc21

Legend:
cMet [1] = biological target: T1, cMet (Homo sapiens, UniProt P08581); experiment: In vivo NIR fluorescence endoscopy of patient-derived colonoids implanted orthotopically in NSG mouse colon; conditions: NSG mice, 1 h post-injection, n = 6 mice
T1 construct: Human colonoids provide clinically relevant levels of target expression; endogenous in cells; host or cells: Patient-derived human colonoids (cMet-high adenoma, cMet-low adenoma, normal), either cultured or implanted orthotopically in NSG mouse colon
Procedure: Colonoids were harvested and treated, as described previously. Colonoids were resuspended in engraftment medium: DPBS, 5% Matrigel, 10 µM Y27632. Prior to colonoid implantation, 7–12-week-old NSG (NOD.Cg-Prkdc^scidIl2rg^tm1Wjl/SzJ, Jackson laboratory, #005557) mice were treated with 2.5% dextran sulfate sodium (DSS) for 5 days and supplied with regular water for another day. Anesthesia was induced and maintained via a nose cone with inhaled isoflurane mixed with oxygen at concentrations of 2–4% at a flow rate of 0.5 L/min. A total of ~2.5–5 × 10^5 cell aggregates in 200 μL were injected intrarectally. The rectum was closed immediately using tissue adhesive (Santa Cruz Biotechnology, Dallas, TX, USA; #SC361931) to promote retention of the implanted colonoids. Colonoid growth was monitored weekly by small animal endoscopy with white light illumination. Imaging was performed after the implanted adenomas were clearly visible.
Mice were fasted for 4–6 h prior to in vivo imaging. Anesthesia was induced and maintained using inhaled isoflurane mixed with oxygen at concentrations of 2–4% and a flow rate of 0.5 L/min via a nose cone. The peptides were injected intravenously using a concentration of 200 μM diluted in 200 μL of PBS. A rigid small animal endoscope (Karl Storz Veterinary Endoscopy, Goleta, CA, USA) was modified to deliver NIR excitation at λex = 785 nm. This instrument was inserted into the mouse rectum at 1 h post-injection to collect in vivo fluorescence images. After 3 days to allow for target peptide clearance, the scrambled (control) peptide was administered systemically and imaged similarly. A total of n = 3 independent regions of interest (ROI) with dimensions of 20 × 20 μm^2 were identified randomly from the implanted area (target) and from adjacent normal colonic mucosa (background). The mean fluorescence intensities were used to calculate target-to-background (T/B) ratios.

colonic adenomas = experiment: In vivo NIR fluorescence endoscopy of spontaneous colonic adenomas in CPC;Apc mice (pharmacokinetics, T/B ratio); set-up: species or system mouse
Procedure: CPC;Apc mice have been genetically engineered to sporadically delete an APC gene regulated by a Cre promoter (CDX2P-9.5NLS-Cre) to spontaneously form either flat or polypoid adenomas in the distal colon.
The IRDye800-labeled target peptide (200 μM, 200 μL) was injected intravenously in Cpc;Apc mice, and fluorescence images were collected at 0, 0.5, 1, 2, 4, 6, 10, 24, 48 h post-injection using the small animal endoscope. The IRDye800-labeled scrambled (control) peptide was administered and imaged the same way 3 days after. The adjacent nontumor tissue region with an equal area of the tumor region was used for background. The time point with the highest target-to-background (T/B) ratio was selected as peak uptake.

[2] = Serum stability by analytical RP-HPLC; type: in vitro ADME; conditions: CPC;Apc mouse serum 194 μL, 30 μM peptide, 37 °C, 0, 0.5, 1, 2, 4, 8, 24 h, acetonitrile precipitation, RP-HPLC area under the peak, R^2 = 0.99; read-out: Half-life T1/2 in mouse serum (converted)
Procedure: Peptide stability was evaluated by incubating 6 μL of 1 mM peptide in PBS at 37 °C, resulting in a final concentration of 30 μM in 194 μL of serum obtained from a CPC;Apc mouse. Samples were precipitated by adding a double volume of acetonitrile and centrifuging for 10 min at 4 °C. RP-HPLC was performed at 0, 0.5, 1, 2, 4, 8, and 24 h. The relative peptide concentrations were determined by measuring the area under the peak (Waters, Breeze 2). The coefficient of determination R^2 was determined using Graphpad Prism 8 software (GraphPad Software, Boston, MA, USA).

cMet [3] = biological target: T1, cMet; experiment: Ex vivo immunofluorescence of excised NSG mouse colon with implanted colonoids, human-to-mouse (h/m) ratio; type: binding; conditions: excised NSG colon sections, peptide 5 μM 10 min RT, antibody 1:100, mean ± SD, n = 6 colonoids
Procedure: Tissue sections were deparaffinized, and antigen retrieval was performed as described previously. Sections were blocked with goat serum for 30 min at RT followed by overnight incubation with 1:100 dilution of monoclonal anti-cMet antibody (Abcam; #EP1454Y) and undiluted human-specific anti-cytokeratin (CAM 5.2, BD Biosciences, Franklin Lakes, NJ, USA; #345779) at 4 °C. Thereafter, 1:500 AF488-labeled goat anti-rabbit secondary antibody (Life Technologies; #A-11029) and 1:500 AF568-labeled goat anti-mouse secondary antibody (Abcam, #ab175473) were administered. After washing with PBST, the slides were stained with the IRDye800-labeled peptides at a concentration of 5 μM for 10 min at RT. The tissue sections were then washed with PBST and mounted using a Prolong Gold reagent containing DAPI (Invitrogen; #P36931). NIR fluorescence images were collected using an inverted confocal microscope (Leica; Stellaris 5). The fluorescence intensities were quantified using custom MATLAB R2022a, and regions of saturated intensities were avoided.

cMet [4] = biological target: T1, cMet; experiment: Peptide biodistribution, ex vivo NIR fluorescence of resected organs and colonoids (Pearl Trilogy); type: in vivo; conditions: NSG mice, 200 μM, 200 μL i.v., 1 hour post-injection, ex vivo λex 785 / λem 820 nm, mean ± SD
Procedure: Peptides (200 μM, 200 μL) were injected intravenously in NSG mice ~3 weeks after orthotopic implantation of the patient-derived colonoids. The mice were euthanized at 1 h post-injection. Major organs were resected and imaged using the Pearl Trilogy (LI-COR Biosciences) with excitation at λex = 785 nm and emission at λem = 820 nm to measure the peptide biodistribution. Fluorescence intensities were quantified from each whole tumor or organ using Image Studio 5.5.4 software (LI-COR Biosciences).

[5] = Peptide safety: necropsy histology (H&E), blood hematology and chemistry; type: in vivo, mouse; conditions: CPC;Apc mice, 200 μM, 200 μL i.v., 48 h post-injection
Procedure: CPC;Apc mice were euthanized at 48 hours post-injection with QQT* -IRDye800 (200 μM, 200 μL). Vital organs were excised, sectioned, and evaluated by routine histology (H&E) to evaluate for signs of acute toxicity. Whole blood was collected retro-orbitally using a capillary tube and submitted for evaluation of hematology and chemistry.

[6] = 200 μM in 200 μL i.v., mean ± SD
[7] = 200 μM, 200 μL i.v., images at 0-48 h
[8] = spontaneous adenomas, 1 hour after i.v. administration, mean ± SD

T1 sequence (P08581 25-1390): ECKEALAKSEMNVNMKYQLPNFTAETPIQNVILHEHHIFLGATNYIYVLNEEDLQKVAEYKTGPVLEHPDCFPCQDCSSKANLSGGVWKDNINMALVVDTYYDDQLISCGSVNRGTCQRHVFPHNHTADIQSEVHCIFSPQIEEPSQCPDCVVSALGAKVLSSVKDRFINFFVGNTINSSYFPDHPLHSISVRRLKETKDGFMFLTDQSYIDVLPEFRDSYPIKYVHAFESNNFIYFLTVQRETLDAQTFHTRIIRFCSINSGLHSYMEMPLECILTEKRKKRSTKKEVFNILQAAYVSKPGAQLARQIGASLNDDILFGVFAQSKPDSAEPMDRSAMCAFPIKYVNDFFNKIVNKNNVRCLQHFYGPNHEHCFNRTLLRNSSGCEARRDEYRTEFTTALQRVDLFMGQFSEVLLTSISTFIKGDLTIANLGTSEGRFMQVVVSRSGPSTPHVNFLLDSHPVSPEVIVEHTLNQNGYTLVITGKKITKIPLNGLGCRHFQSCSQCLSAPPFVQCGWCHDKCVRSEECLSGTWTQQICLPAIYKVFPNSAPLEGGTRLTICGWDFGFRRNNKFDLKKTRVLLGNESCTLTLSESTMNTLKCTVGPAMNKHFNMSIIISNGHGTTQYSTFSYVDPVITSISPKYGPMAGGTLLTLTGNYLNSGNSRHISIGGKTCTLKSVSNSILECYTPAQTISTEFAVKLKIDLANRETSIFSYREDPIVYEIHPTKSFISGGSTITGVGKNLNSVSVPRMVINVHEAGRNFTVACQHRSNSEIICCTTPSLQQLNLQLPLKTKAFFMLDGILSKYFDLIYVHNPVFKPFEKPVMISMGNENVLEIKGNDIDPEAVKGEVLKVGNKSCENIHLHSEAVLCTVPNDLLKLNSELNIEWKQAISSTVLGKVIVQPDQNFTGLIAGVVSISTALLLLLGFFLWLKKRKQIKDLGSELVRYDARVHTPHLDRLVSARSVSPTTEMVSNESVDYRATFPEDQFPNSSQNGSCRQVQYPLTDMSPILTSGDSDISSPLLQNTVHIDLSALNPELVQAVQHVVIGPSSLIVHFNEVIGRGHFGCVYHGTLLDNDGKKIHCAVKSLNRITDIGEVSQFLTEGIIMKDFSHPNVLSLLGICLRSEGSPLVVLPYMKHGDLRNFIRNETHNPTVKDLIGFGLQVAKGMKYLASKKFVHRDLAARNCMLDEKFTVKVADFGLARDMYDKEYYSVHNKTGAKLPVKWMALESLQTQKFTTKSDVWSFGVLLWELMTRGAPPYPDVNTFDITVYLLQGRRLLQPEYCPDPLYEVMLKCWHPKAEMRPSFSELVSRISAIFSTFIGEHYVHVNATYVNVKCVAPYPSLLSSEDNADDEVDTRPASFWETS

| SMILES | Quantified fluorescence intensity (T/B ratio) in vivo, cMet^high adenoma (cMet [1]; 200 μM in 200 μL i.v., endoscope λex 785 nm, mean ± SD) | Quantified fluorescence intensity (T/B ratio) in vivo, cMet^low adenoma (cMet [1]; [6]) | Quantified fluorescence intensity (T/B ratio) in vivo, normal colonoid (cMet [1]; [6]) | Fold increase QQT*-IRDye800 versus TLQ*-IRDye800, cMet^high adenoma (cMet [1]) [fold] | Peak T/B ratio (peak uptake by the adenoma) (colonic adenomas; 200 μM, 200 μL i.v., at 1 h post-injection, mean ± SD, n = 6 mice) | Time of peak uptake (peak T/B ratio) post-injection (colonic adenomas; [7]) [h] | Time to clearance of signal (return to baseline) (colonic adenomas; [7]) | T/B ratio, flat lesions (colonic adenomas; [8]) | T/B ratio, grossly visible adenomas (colonic adenomas; [8]) | T/B ratio, small adenomas (colonic adenomas; [8]) | half-life at 30 μM [2] [min] | Fluorescence intensity human-to-mouse (h/m) ratio, cMet^high adenoma colonoid (cMet [3]) | Fluorescence intensity human-to-mouse (h/m) ratio, cMet^low adenoma (cMet [3]) | Fluorescence intensity human-to-mouse (h/m) ratio, normal colonoid (cMet [3]) | Uptake (quantified fluorescence) by cMet^high adenoma colonoid (cMet [4]) | Uptake (quantified fluorescence) by cMet^low adenoma colonoid (cMet [4]) | Uptake (quantified fluorescence) by normal human colonoid (cMet [4]) | Acute toxicity in animal necropsy, histology (H&E) of vital organs [5] | Whole blood hematology and chemistry ([5]; n = 6 mice) |
| --- | --- | --- | --- | --- | --- | --- | --- | --- | --- | --- | --- | --- | --- | --- | --- | --- | --- | --- | --- |
| CC(C)C[C@H](NC(=O)[C@H](CO)NC(=O)[C@H](Cc1c[nH]c2ccccc12)NC(=O)[C@H](CC(N)=O)NC(=O)[C@@H](NC(=O)[C@H](CCC(N)=O)NC(=O)[C@@H](N)CCC(N)=O)[C@@H](C)O)C(=O)NCC(=O)NCC(=O)NCC(=O)N[C@@H](CO)C(=O)N[C@@H](CSC1CC(=O)N(CCNC(=O)CCCCCN2C(=CC=C3CCCC(C=CC4=[N+](CCCCS(=O)(=O)[O-])c5ccc(S(=O)(=O)O)cc5C4(C)C)=C3Oc3ccc(S(=O)(=O)O)cc3)C(C)(C)c3cc(S(=O)(=O)O)ccc32)C1=O)C(N)=O (stereo partly drawn) [QQT*-IRDye800] (H-QQTNWSLGGGSC(X1)-NH2; N-terminus and C-terminus assumed) | 2.35 ± 0.35 | 1.19 ± 0.12 | 1.22 ± 0.18 | 1.8 | 2.2 ± 0.4 | 1 | ~ 24 h | 2.17±0.30 | 1.91±0.28 | 2.23±0.43 | 216 | 7.68 ± 1.23 | 0.87 ± 0.31 | 1.19 ± 0.39 | 1.24±0.16 | 0.23±0.08 | 0.18±0.04 | No signs of acute toxicity | No significant abnormalities |
| CC(C)C[C@H](NC(=O)[C@@H](N)[C@@H](C)O)C(=O)N[C@@H](CCC(N)=O)C(=O)N[C@@H](Cc1c[nH]c2ccccc12)C(=O)N[C@@H](CC(N)=O)C(=O)N[C@@H](CCC(N)=O)C(=O)N[C@@H](CO)C(=O)NCC(=O)NCC(=O)NCC(=O)N[C@@H](CO)C(=O)N[C@@H](CSC1CC(=O)N(CCNC(=O)CCCCCN2/C(=C/C=C3\CCCC(/C=C/C4=[N+](CCCCS(=O)(=O)[O-])c5ccc(S(=O)(=O)O)cc5C4(C)C)=C3Oc3ccc(S(=O)(=O)O)cc3)C(C)(C)c3cc(S(=O)(=O)O)ccc32)C1=O)C(N)=O (stereo partly drawn) [TLQ*-IRDye800, reference compound] (H-TLQWNQSGGGSC(X2)-NH2) |  |  |  |  |  |  |  |  |  |  |  |  |  |  | 0.29±0.098 | 0.25±0.06 |  |  |  |
